The results in this text go back to patent US20110311517A1, “Antibodies and methods for treating estrogen receptor-associated diseases” (SHENOGEN PHARMA GROUP, LTD., priority 2009, published 2011).

The experiment concerns implanted tumors. Briefly: Comparison of anti-tumor activity of ScFv-7 with tamoxifen on tumor-bearing nude mice. The following applies: after 18 days of drug administration. The class given is in vivo, BALB/c-nu female nude mice. On the procedure: BALB/c-nu female nude mice were divided into 3 groups, with 7 mice in each group.
Human anti-ERα36 ScFv-7 was administered at the dose of 0.1 mg/20 g body weight/day. The positive control tamoxifen was administered at the dose of 0.33 mg/20 g body weight/day. The negative control group was administered with human IgG.
The tumor-bearing nude mice were weighed, and the volumes of the implanted tumors were measured every 3-4 days. The relative tumor volumes and tumor growth inhibition rates were calculated using Equation 2 and Equation 4 respectively. Animals received drug administration for 18 days and were terminated 24 h later. The tumors were excised from the animals and weighed. The average tumor weights and tumor growth inhibitions were calculated using Equation 4.

As to `CC/C(=C(\c1ccccc1)c1ccc(OCCN(C)C)cc1)c1ccccc1` [tamoxifen, reference compound], the tumor inhibition rates result (ScFv-7 0.1 mg/20 g body weight/day, tamoxifen 0.33 mg/20 g body weight/day) is listed as “around 60%”. In addition, the “average tumor weights compared with negative group” value (p-values below 0.01) was “significant difference”.
